# Columns and labels:
# TNF-α = TNF-α inhibition in LPS-stimulated activated U937 cells (ELISA); assay type: cell-based; details: Homo sapiens, U-937, Example 3
# Experimental: A human myeloid leukemia cell line U937 (Rockville, Md.) was obtained from ATCC. The cell line was cultured in a RPMI 1640 medium with a 10% fetal calf serum (FCS) at 37° C., 5% CO2. The cell line maintained in exponential growth. For inducing differentiation, the cells with a starting concentration of 4×10^5 cell/ml were cultured in T150 containing 50 ng/ml PMA (Sigma) for 24 hours. Subsequently, the cells were moved to a fresh medium without PMA and cultured for 48 hours. The cells were collected with rubber policeman (Bellco Glass, Vineland, N.J.) gently scraping the medium bottle for the next step.
# The activated U937 cells were seeded into a 96-well plate to form a concentration of 1.6×10^5 cell/well. The ethanol extracts of Cynanchum hancockianum in different concentrations were respectively added 10 μl to the 96-well plate. The final volume of each well was 190 μl. The plate was cultured at 37° C., 5% CO2 for 30 min. Then each well was added 2 μg/ml of lipopolysaccharide (LPS) in PBS 10 μl and cultured at 37° C. for 4 hours. […] The amount of TNF-α was analyzed by an ELISA (TNF-α duoset, R&D, Minneapolis, Minn.). […]
# The activated U937 cells obtained from Example 2 were seeded into a 96-well plate to form a concentration of 1.6×10^5 cell/well. […] The amount of TNF-α was analyzed by an ELISA and cell viability was tested by MTT. […]
# [1] = test system: collagen-induced arthritis model; assay: Collagen-induced arthritis model, morbidity and onset; assay type: in vivo, rat
# Experimental: (§1) 50 μg of a fetus bovine type II collagen (CII, Chondrex) was emulsified in a complete Freund's adjuvant (CFA, Sigma). The ankle volume was measured as the basis of a hindpaw volume. On the eighth day after the primary immune, each rat was injected with 100 μg of the collagen emulsified in IFA (Sigma) to induce arthritis. The carrier control group was i.p. injected with 2 ml/kg of 0.5% CMC rats every two days until day 21. The experimental group was […] antofine isolated from Example 1 according to the following regimes: Group 1 was i.p. injected with 3 mg/kg of antofine every two days until Day 20 and then i.p. injected with 3 mg/kg of antofine per day on Day 21˜23; Group 2 was i.p. injected with 3 mg/kg of antofine every three days until Day 20 and then i.p. injected with 3 mg/kg of antofine per day on Day 21˜23; Group 3 was i.p. injected with 2 mg/kg of antofine every two days until Day 20 and then i.p. injected with 3 mg/kg of antofine per day on Day 21˜23; Group 4 was i.p. injected with 3 mg/kg of antofine per day for 5 days, and then stop administration on the next nine days, and i.p. injected with 3 mg/kg of antofine per day on Day 21˜23.; and All rats were scarified on Day 24.
# [2] = Weight changes in collagen-induced arthritis model; assay type: in vivo, rat; details: various doses of antofine and regimes (Groups 1-4), i.p., rats
# Experimental: as §1
structure (smiles),measurement,setting,value
"COc1ccc2c3c(c4cc(OC)c(OC)cc4c2c1)C[C@H]1CCCN1C3 [antofine, (−)-antofine]",IC50,TNF-α,7 ng/mL
same,Morbidities and onset of arthritis,"[1]; Group 1: 3 mg/kg i.p. every two days until Day 20, then 3 mg/kg per day on Day 21-23",decreased morbidities and delayed onsets
same,Morbidities and onset of arthritis,"[1]; Group 4: 3 mg/kg i.p. per day for 5 days, stop nine days, 3 mg/kg per day on Day 21-23",decreased morbidities and delayed onsets
same,Weight changes,[2],not greatly changed

# From patent publication US9549958B2, “Extracts of Cynanchum sp. and active ingredients contained therein in use of arthritis treatment” (INDUSTRIAL TECHNOLOGY RESEARCH INSTITUTE, priority 2011, dated 2017)
